Experimental data from ChEMBL document CHEMBL3994622, “Design and synthesis of new RAF kinase-inhibiting antiproliferative quinoline derivatives. Part 2: Diarylurea derivatives” (Eur J Med Chem, 2017).

Columns and labels:
Format in all cases: functional
MOLT-4 [1] = test: Growth inhibition of human MOLT4 cells incubated for 48 hrs by sulforhodamine B assay; details: MOLT-4, 48 h
EKVX = test: Growth inhibition of human EKVX cells incubated for 48 hrs by sulforhodamine B assay
HOP-62 = test: Growth inhibition of human HOP62 cells incubated for 48 hrs by sulforhodamine B assay; details: HOP-62, 48 h; for CC50: read-out: LC50 (the source's name)
NCI-H322M = test: Growth inhibition of human NCI-H322M cells incubated for 48 hrs by sulforhodamine B assay; details: for CC50: read-out: LC50 (the source's name)
NCI-H460 = test: Growth inhibition of human NCI-H460 cells incubated for 48 hrs by sulforhodamine B assay; details: NCI-H460, 48 h; for CC50: read-out: LC50 (the source's name)
NCI-H522 = test: Growth inhibition of human NCI-H522 cells incubated for 48 hrs by sulforhodamine B assay; details: NCI-H522, 48 h; for CC50: read-out: LC50 (the source's name)
COLO 205 = test: Growth inhibition of human COLO205 cells incubated for 48 hrs by sulforhodamine B assay; details: COLO 205, 48 h; for CC50: read-out: LC50 (the source's name)
HCC 2998 = test: Growth inhibition of human HCC2998 cells incubated for 48 hrs by sulforhodamine B assay; details: HCC 2998, 48 h; for CC50: read-out: LC50 (the source's name)
SNB-19 [2] = test: Growth inhibition of human SNB19 cells incubated for 48 hrs by sulforhodamine B assay; details: SNB-19, 48 h; for CC50: read-out: LC50 (the source's name)
Malme-3M = test: Growth inhibition of human MALME-3M cells incubated for 48 hrs by sulforhodamine B assay; details: for CC50: read-out: LC50 (the source's name)
M14 = test: Growth inhibition of human M14 cells incubated for 48 hrs by sulforhodamine B assay; details: M14, 48 h; for CC50: read-out: LC50 (the source's name)
MDA-MB-435 = test: Growth inhibition of human MDA-MB-435 cells incubated for 48 hrs by sulforhodamine B assay; details: MDA-MB-435, 48 h; for CC50: read-out: LC50 (the source's name)
SK-MEL-2 = test: Growth inhibition of human SK-MEL-2 cells incubated for 48 hrs by sulforhodamine B assay; details: SK-MEL-2, 48 h; for CC50: read-out: LC50 (the source's name)
SK-MEL-5 = test: Growth inhibition of human SK-MEL-5 cells incubated for 48 hrs by sulforhodamine B assay; details: SK-MEL-5, 48 h; for CC50: read-out: LC50 (the source's name)
UACC-62 = test: Growth inhibition of human UACC62 cells incubated for 48 hrs by sulforhodamine B assay; details: UACC-62, 48 h; for CC50: read-out: LC50 (the source's name)
IGROV-1 = test: Growth inhibition of human IGROV1 cells incubated for 48 hrs by sulforhodamine B assay; details: IGROV-1, 48 h; for CC50: read-out: LC50 (the source's name)
OVCAR-4 = test: Growth inhibition of human OVCAR4 cells incubated for 48 hrs by sulforhodamine B assay; details: OVCAR-4, 48 h; for CC50: read-out: LC50 (the source's name)
OVCAR-5 [3] = test: Growth inhibition of human OVCAR5 cells incubated for 48 hrs by sulforhodamine B assay; details: OVCAR-5, 48 h; for CC50: read-out: LC50 (the source's name)
CAKI-1 = test: Growth inhibition of human Caki1 cells incubated for 48 hrs by sulforhodamine B assay; details: CAKI-1, 48 h; for CC50: read-out: LC50 (the source's name)
SN12C = test: Growth inhibition of human SN12C cells incubated for 48 hrs by sulforhodamine B assay; details: for CC50: read-out: LC50 (the source's name)
MCF7 = test: Growth inhibition of human MCF7 cells incubated for 48 hrs by sulforhodamine B assay; details: MCF7, 48 h; for CC50: read-out: LC50 (the source's name)
MOLT-4 [4] = test: Growth inhibition of human MOLT4 cells assessed as cell growth at 0.01 uM incubated for 48 hrs by sulforhodamine B assay relative to control; details: MOLT-4, 48 h, read-out: Activity
CCRF-CEM = test: Growth inhibition of human CCRF-CEM cells assessed as cell growth at 0.1 uM incubated for 48 hrs by sulforhodamine B assay relative to control; details: read-out: Activity
HL-60(TB) = test: Growth inhibition of human HL-60(TB) cells assessed as cell growth at 1 uM incubated for 48 hrs by sulforhodamine B assay relative to control; details: HL-60, 48 h, read-out: Activity
HOP-92 = test: Growth inhibition of human HOP92 cells assessed as cell growth at 10 uM incubated for 48 hrs by sulforhodamine B assay relative to control; details: HOP-92, 48 h, read-out: Activity
HCT-15 = test: Growth inhibition of human HCT15 cells assessed as cell growth at 10 uM incubated for 48 hrs by sulforhodamine B assay relative to control; details: HCT-15, 48 h, read-out: Activity
MDA-MB-231 = test: Growth inhibition of human MDA-MB-231 cells assessed as cell growth at 10 uM incubated for 48 hrs by sulforhodamine B assay relative to control; details: MDA-MB-231, 48 h, read-out: Activity
BT-549 = test: Growth inhibition of human BT549 cells assessed as cell growth at 10 uM incubated for 48 hrs by sulforhodamine B assay relative to control; details: BT-549, 48 h, read-out: Activity
SNB-19 [5] = test: Growth inhibition of human SNB19 cells assessed as cell growth at 0.003 uM incubated for 48 hrs by sulforhodamine B assay relative to control; details: SNB-19, 48 h, read-out: Activity
SF-295 = test: Growth inhibition of human SF295 cells assessed as cell growth at 3 uM incubated for 48 hrs by sulforhodamine B assay relative to control; details: SF-295, 48 h, read-out: Activity
SK-MEL-28 = test: Growth inhibition of human SK-MEL-28 cells assessed as cell growth at 3 uM incubated for 48 hrs by sulforhodamine B assay relative to control; details: SK-MEL-28, 48 h, read-out: Activity
OVCAR-5 [6] = test: Growth inhibition of human OVCAR5 cells assessed as cell growth at 3 uM incubated for 48 hrs by sulforhodamine B assay relative to control; details: OVCAR-5, 48 h, read-out: Activity

Structure (SMILES): COc1cc2cc(Oc3ccc(NC(=O)Nc4cc(C(F)(F)F)cc(C(F)(F)F)c4)cc3)c(C)nc2cc1OC
- GI50 (MOLT-4 [1]): 1130 nM
- LC50 (MOLT-4 [1]): > 100 µM
- TGI (MOLT-4 [1]): 4.04 µM
- GI50 (EKVX): 1000 nM
- LC50 (concentration killing 50% of cells) (EKVX): 8.88 µM
- TGI (EKVX): 2.98 µM
- GI50 (HOP-62): 1350 nM
- TGI (HOP-62): 2.88 µM
- CC50 (HOP-62): 6.15 µM
- GI50 (NCI-H322M): 1160 nM
- TGI (NCI-H322M): 2.57 µM
- CC50 (NCI-H322M): 5.7 µM
- GI50 (NCI-H460): 960 nM
- TGI (NCI-H460): 2.72 µM
- CC50 (NCI-H460): 7.53 µM
- GI50 (NCI-H522): 1250 nM
- TGI (NCI-H522): 2950 nM
- CC50 (NCI-H522): 6.95 µM
- GI50 (COLO 205): 1790 nM
- TGI (COLO 205): 3580 nM
- CC50 (COLO 205): 7.18 µM
- GI50 (HCC 2998): 1530 nM
- TGI (HCC 2998): 3.15 µM
- CC50 (HCC 2998): 6.49 µM
- GI50 (SNB-19 [2]): 650 to 654 nM
- TGI (SNB-19 [2]): 2.16 µM
- CC50 (SNB-19 [2]): 5.73 µM
- GI50 (Malme-3M): 1100 nM
- TGI (Malme-3M): 3.46 µM
- CC50 (Malme-3M): 13.6 µM
- GI50 (M14): 1000 nM
- TGI (M14): 2.88 µM
- CC50 (M14): 8.25 µM
- GI50 (MDA-MB-435): 1800 nM
- TGI (MDA-MB-435): 4.28 µM
- CC50 (MDA-MB-435): 11.6 µM
- GI50 (SK-MEL-2): 1820 nM
- TGI (SK-MEL-2): 4.24 µM
- CC50 (SK-MEL-2): 9.88 µM
- GI50 (SK-MEL-5): 1620 nM
- TGI (SK-MEL-5): 3280 nM
- CC50 (SK-MEL-5): 6.67 µM
- GI50 (UACC-62): 560 nM
- TGI (UACC-62): 2.09 µM
- CC50 (UACC-62): 6.03 µM
- GI50 (IGROV-1): 510 nM
- TGI (IGROV-1): 2.3 µM
- CC50 (IGROV-1): 8.68 µM
- GI50 (OVCAR-4): 1220 nM
- TGI (OVCAR-4): 4.44 µM
- CC50 (OVCAR-4): 80.2 µM
- GI50 (OVCAR-5 [3]): 1930 nM
- TGI (OVCAR-5 [3]): 4.14 µM
- CC50 (OVCAR-5 [3]): 8.88 µM
- GI50 (CAKI-1): 1410 nM
- TGI (CAKI-1): 5.1 µM
- CC50 (CAKI-1): 15.3 µM
- GI50 (SN12C): 590 nM
- TGI (SN12C): 2.09 µM
- CC50 (SN12C): 32.5 µM
- GI50 (MCF7): 540 nM
- TGI (MCF7): 2.36 µM
- CC50 (MCF7): 5.75 µM
- growth at 0.01 µM (MOLT-4 [4]): 104%
- growth at 0.1 µM (CCRF-CEM): 97%
- growth at 1 µM (HL-60(TB)): 72%
- growth at 10 µM (HOP-92): -38%
- growth at 10 µM (HCT-15): -91%
- growth at 10 µM (MDA-MB-231): -83%
- growth at 10 µM (BT-549): -64%

Structure (SMILES): COc1cc2cc(Oc3ccc(NC(=O)Nc4ccc(Cl)c(C(F)(F)F)c4)cc3)c(C)nc2cc1OC
- GI50 (MOLT-4 [1]): 1140 nM
- LC50 (MOLT-4 [1]): > 32.5 µM
- TGI (MOLT-4 [1]): 5.49 µM
- GI50 (EKVX): 1010 nM
- LC50 (concentration killing 50% of cells) (EKVX): 17.6 µM
- TGI (EKVX): 3.75 µM
- GI50 (HOP-62): 1300 nM
- TGI (HOP-62): 5.32 µM
- CC50 (HOP-62): 13.7 µM
- GI50 (NCI-H322M): 2050 nM
- TGI (NCI-H322M): 6.28 µM
- CC50 (NCI-H322M): 16.3 µM
- GI50 (NCI-H460): 1070 nM
- TGI (NCI-H460): 3.57 µM
- CC50 (NCI-H460): 21.1 µM
- GI50 (NCI-H522): 773 nM
- TGI (NCI-H522): 2650 nM
- CC50 (NCI-H522): 12.2 µM
- GI50 (COLO 205): 660 nM
- TGI (COLO 205): 1310 nM
- CC50 (COLO 205): 2.59 µM
- GI50 (HCC 2998): 1770 nM
- TGI (HCC 2998): 5.48 µM
- CC50 (HCC 2998): 13.6 µM
- GI50 (SNB-19 [2]): 1410 nM
- TGI (SNB-19 [2]): 5.31 µM
- CC50 (SNB-19 [2]): 15 µM
- GI50 (Malme-3M): 1330 nM
- TGI (Malme-3M): 5.71 µM
- CC50 (Malme-3M): > 32.5 µM
- GI50 (M14): 1250 nM
- TGI (M14): 5.25 µM
- CC50 (M14): 19.2 µM
- GI50 (MDA-MB-435): 1030 nM
- TGI (MDA-MB-435): 4.71 µM
- CC50 (MDA-MB-435): > 32.5 µM
- GI50 (SK-MEL-2): 799 to 800 nM
- TGI (SK-MEL-2): 1.94 µM
- CC50 (SK-MEL-2): 11 µM
- GI50 (SK-MEL-5): 793 nM
- TGI (SK-MEL-5): 2170 nM
- CC50 (SK-MEL-5): 8.01 µM
- GI50 (UACC-62): 1240 nM
- TGI (UACC-62): 6.01 µM
- CC50 (UACC-62): 18.4 µM
- GI50 (IGROV-1): 2340 nM
- TGI (IGROV-1): 9.83 µM
- CC50 (IGROV-1): > 32.5 µM
- GI50 (OVCAR-4): 1370 nM
- TGI (OVCAR-4): 6.1 µM
- CC50 (OVCAR-4): 23.5 µM
- GI50 (OVCAR-5 [3]): 1930 nM
- TGI (OVCAR-5 [3]): 6.22 µM
- CC50 (OVCAR-5 [3]): 17.4 µM
- GI50 (CAKI-1): 782 nM
- TGI (CAKI-1): 2.54 µM
- CC50 (CAKI-1): 25.2 µM
- GI50 (SN12C): 1310 nM
- TGI (SN12C): 6.12 µM
- CC50 (SN12C): 26.8 µM
- GI50 (MCF7): 1080 nM
- TGI (MCF7): 3.88 µM
- CC50 (MCF7): 15 µM
- growth at 0.003 µM (SNB-19 [5]): 94%
- growth at 3 µM (SF-295): -5%
- growth at 3 µM (SK-MEL-28): 27%
- growth at 3 µM (OVCAR-5 [6]): 32%
